These results are taken from patent publication US20140200215A1, “LYSOPHOSPHATIDIC ACID RECEPTOR ANTAGONISTS” (INTERMUNE, INC., priority 2013, published 2014).

Assay [1] has as its system primary fibroblasts (including lung, dermal), HFL-1, 3T3 and CHO cells expressing LPA1R. The assay can be described thus: LPA1 migration assay (Oris cell migration). The class given is cell-based. To be noted: inhibition of cell migration in response to chemoattractant (LPA, serum). The text has this: Migration of primary fibroblasts (including lung, dermal), HFL-1, 3T3 and CHO cells expressing LPA1R were monitored using the Oris™ assay (Platypus Technologies, Madison, Wis.). These cells were dye (Cell Tracker Green™) loaded and serum starved for 12-24 hrs. In response to chemoattractants such as LPA and serum, the cells migrated inward in to the exclusion (detection) zone. After fixing, fluorescent cells in the detection zone were counted using a high content reader. The ability of LPA1 antagonists to inhibit cell migration is quantified by plotting cell number vs. compound concentration and curve fitting the resulting dose-response curve to a 4 parameter logistic function.

Another assay concerns the target Human LPA1 (Homo sapiens, UniProt Q92633). The assay can be described thus: Beta-Arrestin based assay for human LPA1R antagonists (PathHunter). The class given is cell-based. To be noted: CHO cells expressing ProLink tagged human LPA1R; antagonist mode, 0.5 micromolar LPA. As to the method: Beta-Arrestin Based Assays for Human LPA1R Antagonists and Agonists
A CHO cell line stably expressing the ProLink™ tagged human LPA1R was obtained from DiscoverX Inc, Fremont, Calif. In this system, β-Arrestin was fused to an N-terminal deletion mutant of β-galactosidase (termed the enzyme acceptor or EA), the human LPA1R was fused to a smaller (42 amino acids) weakly complementing fragment termed ProLink™. […] Cell handling and assays were performed according to protocols specified in the PathHunter® assays kits (DiscoverX, Fremont, Calif.). Assays were performed in quadruplicate in white 384 well plates. End point luminescence data were plotted and fit to a 4 parameter logistic function to obtain IC50 values. For antagonist assays, an […] concentration of agonist (LPA) equal to 0.5 micromolar was used.

Chain of Human LPA1 (Q92633 whole entry, the tested form may be a part): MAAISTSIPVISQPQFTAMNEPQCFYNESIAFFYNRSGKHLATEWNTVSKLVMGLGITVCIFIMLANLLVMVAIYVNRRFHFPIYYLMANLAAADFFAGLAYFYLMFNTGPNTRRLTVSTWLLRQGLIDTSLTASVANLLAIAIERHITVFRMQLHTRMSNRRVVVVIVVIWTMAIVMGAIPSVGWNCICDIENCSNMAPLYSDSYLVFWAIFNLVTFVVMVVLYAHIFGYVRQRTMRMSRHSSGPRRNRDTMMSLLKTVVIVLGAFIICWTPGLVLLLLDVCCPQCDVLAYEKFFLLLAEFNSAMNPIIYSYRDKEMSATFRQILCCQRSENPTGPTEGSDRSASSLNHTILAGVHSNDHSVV

A word on the EC50: it is the midpoint of the concentration-response curve. Low values mean greater potency, high ones weaker potency. For `Cc1nsc(C2CCC(c3ccc(C4(C(=O)O)CC4)cc3)CC2)c1NC(=O)O[C@H](C)c1ccccc1` (single isomer, unassigned) [IT060], the 50% effective concentration (EC50) (in assay [1]; on Human LPA1) was more than 500 nM each time. With `Cc1nsc(-c2cc3cc4sc(C(=O)O)cc4cc3s2)c1NC(=O)O[C@H](C)c1ccccc1` [IT080], at Human LPA1, the EC50 was more than 500 nM. Regarding `Cc1noc(C#Cc2nc3sc(C4(C(=O)O)CC4)cc3s2)c1NC(=O)O[C@H](C)c1ccccc1` [IT 102], the concentration for a half-maximal effect (EC50) on Human LPA1 is less than 50 nM. Consider `Cc1nsc(-c2ccc(C34CCC(C5(C(=O)O)CC5)(CC3)CC4)cc2)c1NC(=O)O[C@H](C)c1ccccc1` [IT093], for which the EC50 (in assay [1]; at Human LPA1) was more than 500 nM each time.

Take `Cc1nsc(-c2ccc(-c3ccc(C4(C(=O)O)CC4)cc3)cc2)c1NC(=O)OC(c1ccccc1)C(F)(F)F` (single isomer, unassigned) [IT079]: the EC50 (in assay [1]; on Human LPA1) was more than 500 nM each time. `Cc1noc(C#Cc2ccc(CC3(C(=O)O)CC3)cc2)c1NC(=O)O[C@H](C)c1ccccc1` [IT006] showed an EC50 at Human LPA1 of 50 to 500 nM. Consider `Cc1nsc(-c2ccc3cc(C4CCC(C(=O)O)CC4)ccc3c2)c1NC(=O)O[C@H](C)c1ccccc1` (stereo partly drawn) [IT054], for which the EC50 (in assay [1]; on Human LPA1) was more than 500 nM each time. In the case of `Cc1nsc(C#Cc2ccc3c(c2)CCC(C(=O)O)C3)c1NC(=O)O[C@H](C)c1ccccc1` (single isomer, unassigned) [IT063], the EC50 (in assay [1]; on Human LPA1) was more than 500 nM in each case.

Consider `C[C@@H](OC(=O)Nc1c(C#Cc2cc3sc(C4(C(=O)O)CC4)cc3s2)oc2ccccc12)c1ccccc1` [IT074], for which the half-maximal effective concentration (EC50) was more than 500 nM in assay [1] and 50 to 500 nM on Human LPA1. With `Cc1nsc(-c2cc(F)c(-c3ccc(C4(C(=O)O)CCOCC4)cc3)cc2F)c1NC(=O)OCc1ccccc1` [IT045], the half-maximal effective concentration (EC50) (in assay [1]; on Human LPA1) was more than 500 nM in each case. `COCC(COC(=O)C1(c2cc3sc(C#Cc4cnn(C)c4NC(=O)O[C@H](C)c4ccccc4)cc3s2)CC1)OC` (stereo partly drawn) [IT 100]: the half-maximal effective concentration (EC50) on Human LPA1 is less than 50 nM. As for `C[C@@H](OC(=O)Nc1c(-c2cc(F)c(-c3ccc(C4(C(=O)O)CC4)cc3)cc2F)nn2ccccc12)c1ccccc1` [IT049], the EC50 is 50 to 500 nM in assay [1] and less than 50 nM at Human LPA1. For `CCOC(=O)C1(c2cc3sc(C#Cc4cnn(C)c4NC(=O)O[C@H](C)c4ccccc4)cc3s2)CC1` [IT085] the same measures were more than 500 nM and less than 50 nM. The like results for `C[C@@H](OC(=O)Nc1c(C#CC2=CCC(C3(C(=O)O)CC3)CC2)cnn1C)c1ccccc1` (stereo partly drawn) [IT092] were, in that order, more than 500 nM and more than 500 nM. Turning to `C[C@@H](OC(=O)Nc1c(C#Cc2cc3sc(C4(C(=O)OCCN5CCOCC5)CC4)cc3s2)cnn1C)c1ccccc1` [IT082], the EC50 (in assay [1]; on Human LPA1) was 50 to 500 nM each time. For the compound `Cc1noc(C#Cc2ccc(NC(=O)C3(C(=O)O)CC3)cc2)c1NC(=O)O[C@H](C)c1ccccc1` [IT005], the 50% effective concentration (EC50) (in assay [1]; at Human LPA1) was more than 500 nM each time. For the compound `C[C@@H](OC(=O)Nc1c(C#Cc2nc3sc(C4(C(=O)O)CC4)cc3s2)cnn1C)c1ccccc1` [IT095], the concentration for a half-maximal effect (EC50) (in assay [1]; on Human LPA1) was less than 50 nM in each case.

On to `Cc1noc(-c2ccc(-c3ccc4c(c3)CCCC4C(=O)O)cc2)c1NC(=O)O[C@H](C)c1ccccc1` (single isomer, unassigned) [IT038], for which, in assay [1], the EC50 is more than 500 nM. Turning to `C[C@@H](OC(=O)Nc1c(C#Cc2cc3sc(C4(NS(C)(=O)=O)CC4)cc3s2)cnn1C)c1ccccc1` [IT089], the EC50 (in assay [1]; on Human LPA1) was more than 500 nM each time. On to `C[C@@H](OC(=O)Nc1c(-c2ccc(-c3ccc(C4(C(=O)O)CC4)cc3)cc2)nn2ccccc12)c1ccccc1` [IT052], for which the EC50 in assay [1] was more than 500 nM. As for `Cc1noc(C#Cc2ccc(-c3ccc(C(=O)O)cc3)cc2)c1NC(=O)O[C@H](C)c1ccccc1` [IT081], the EC50 (in assay [1]; on Human LPA1) was more than 500 nM in each case. On to `Cc1noc(C#Cc2ccc(CC3(C(=O)O)CC3)cc2)c1NC(=O)O[C@H](C)c1ccccc1` [IT001], for which the EC50 (in assay [1]; at Human LPA1) was 50 to 500 nM throughout. For `Cc1noc(-c2ccc(-c3ccc4c(c3)CCOC4C(=O)O)cc2)c1NC(=O)O[C@H](C)c1ccccc1` (stereo partly drawn) [IT012], the EC50 (in assay [1]; on Human LPA1) was more than 500 nM throughout.

`C[C@@H](OC(=O)Nc1c(C#Cc2sc3cc(C4(C(=O)O)CC4)sc3c2C(F)(F)F)cnn1C)c1ccccc1` [IT 103] returned a half-maximal effective concentration (EC50) at Human LPA1 of less than 50 nM. With `Cc1noc(-c2ccc(-c3ccc4c(c3)CCCC4C(=O)O)cc2)c1NC(=O)O[C@H](C)c1ccccc1` (single isomer, unassigned) [IT039], the 50% effective concentration (EC50) in assay [1] is more than 500 nM. As to `C[C@@H](OC(=O)Nc1c(-c2cc(F)c(-c3ccc(C4(C(=O)O)CCOCC4)cc3)cc2F)nnn1C)c1ccccc1` [IT055], the EC50 (in assay [1]; on Human LPA1) was 50 to 500 nM each time. Regarding `Cc1noc(C#Cc2ccc(/C=C/C(=O)O)cc2)c1NC(=O)O[C@H](C)c1ccccc1` [IT013], the EC50 (in assay [1]; at Human LPA1) was more than 500 nM each time.

For `C[C@@H](OC(=O)Nc1c(-c2cc(F)c(-c3ccc(C4(C(=O)O)CC4)cc3)cc2F)oc2ccccc12)c1ccccc1` [IT075], the EC50 is 50 to 500 nM in assay [1] and less than 50 nM on Human LPA1. The like results for `Cc1nsc(-c2ccc3cc(C4CCC(C(=O)O)CC4)ccc3c2)c1NC(=O)O[C@H](C)c1ccccc1` (stereo partly drawn) [IT053] were, in that order, more than 500 nM and more than 500 nM. The like results for `C[C@@H](OC(=O)Nc1c(C#Cc2cc3sc(C4(C(=O)OCC(=O)N(C)C)CC4)cc3s2)cnn1C)c1ccccc1` [IT090] were, in that order, 50 to 500 nM and less than 50 nM. The like results for `Cc1nsc(C#Cc2ccc3c(c2)CCC(C(=O)O)C3)c1NC(=O)O[C@H](C)c1ccccc1` (single isomer, unassigned) [IT062] were, in that order, more than 500 nM and more than 500 nM. For `Cc1noc(-c2ccc(-c3ccc4c(c3)OCCC4C(=O)O)cc2)c1NC(=O)O[C@H](C)c1ccccc1` (stereo partly drawn) [IT037], at Human LPA1, the concentration for a half-maximal effect (EC50) was in the range of 50 to 500 nM. `C[C@@H](OC(=O)Nc1c(-c2ccc(-c3ccc(C4(C(=O)O)CC4)cc3)cc2)cnn1C(F)(F)F)c1ccccc1` [IT094]: the 50% effective concentration (EC50) is 50 to 500 nM in assay [1] and less than 50 nM at Human LPA1. The like results for `C[C@@H](OC(=O)Nc1c(-c2ccc(-c3ccc(C4(C(=O)O)CC4)cc3)cc2)nc2n1CCNC2)c1ccccc1` [IT019] were, in that order, more than 500 nM and more than 500 nM. For `C[C@@H](OC(=O)Nc1c(-c2cc(F)c(-c3ccc(C4(C(=O)O)CC4)cc3)cc2F)oc2cnccc12)c1ccccc1` [IT096] the same measures were 50 to 500 nM and less than 50 nM. Turning to `Cc1nsc(-c2ccc(-c3ccc(C4(C(=O)O)CC4)cc3)cc2)c1NC(=O)OC(c1ccccc1)C(F)(F)F` (single isomer, unassigned) [IT078], the EC50 is 50 to 500 nM in assay [1] and less than 50 nM at Human LPA1. The compound `C[C@@H](OC(=O)Nc1ncsc1C#Cc1cc2sc(C3(C(=O)O)CC3)cc2s1)c1ccccc1` [IT101] displayed an EC50 at Human LPA1 of more than 500 nM. Same read-out and setting: under `Cc1noc(-c2ccc(-c3ccc(C4(C(=O)O)CC4)cc3)cc2)c1NC(=O)OC(C)c1cccc2ocnc12` (single isomer, unassigned) [IT076] stands more than 500 nM; under `Cc1noc(-c2ccc(-c3ccc(C4(C(=O)O)CC4)cc3)cc2)c1NC(=O)OC(C)c1cccc2ocnc12` (single isomer, unassigned) [IT077], 50 to 500 nM.
